Experiments:
type II cells [1] = test: In vitro uptake of Vitamin E liposomes by freshly isolated type II cells; assay type: cell-based, male Sprague-Dawley rats; conditions: result in words
Method: (§1) The in vitro assay employed in examples 1 and 4 was performed by the following general procedure. Freshly isolated type II cells were prepared by the method of Dobbs, et al., Am. Rev. Respir. Sid. (1986) 134:141-145. Briefly, lungs of specific-pathogen-free male Sprague-Dawley rats weighing 160-180 g (Bantin-Kingman, Fremont, CA) were digested with elastase (Cooper Biomedical, Malverne, PA). The minced digest was filtered through a series of nylon meshes and cells were collected by centrifugation. The cells were then plated on IgG-coated plates and the non-type II cells, which were primarily macrophages and lymophocytes, adhered to the plate over a period of one hour at 37° C. in a 10% CO2 /air incubator. The non-adherent cells were removed by gentle panning and were centrifuged at 130×g for 8 minutes. This cell pellet contained 85±1% type II cells. The viability of the cells as determined by erythrosin B exclusion averaged 97±1%.
(§2) 2.5×10^6 freshly isolated type II cells were suspended in 1 ml of MEM-Krebs. The concentration of calcium was […]. […] Zero time values were determined by centrifugation and washing of the cells immediately after addition of liposomes. […] The final cell pellet was resuspended in 0.5 ml of MEM-Krebs; 0.3 ml was analyzed for radioactivity in a Beckman LS-75000 scintillation counter. […]

[2] = In vivo anesthetized rat model, lung incorporation of radiolabelled Vitamin E, 60 minute timecourse; set-up: species or system Sprague-Dawley rats; conditions: result in words
Method: The serum was extracted with 2:1 chloroform:methanol.
The animals were sacrificed at 0 and 60 minutes and the lungs were tested for incorporation of radiolabelled Vitamin E as described above, with the following results: […]

[3] = In vivo anesthetized rat model, radiolabelled Vitamin E in lung, 24 hour timecourse
Method: (§3) The in vivo assay employed in examples 2 and 3 was performed by the following general procedure. The compositions were administered to the lungs of anesthetized adult Sprague-Dawley rats by endotracheal cannula. At various times after administration of the compositions, the animals were sacrificed by overdosing with anesthetics. The lungs and serum were obtained from each rat for analysis. The lung tissue was minced and extracted with 2:1 chloroform:methanol. The serum was extracted with 2:1 chloroform:methanol. The serum was sampled to get an indication of the amount of pharmaceutically active substance being transported into general circulation.
(§4) Liposomes were prepared as described in section A with the addition of ^3 H-Vitamin E in the lipid mixture before evaporation. The following weight ratios of lipid and Vitamin E were used to prepare the liposomes:
(§5) DPPC:PC:PG:Cholesterol:Vitamin E [drawing 1] The chloroform was evaporated from the lipid/Vitamin E mixture by rotary evaporation. The dried lipid/Vitamin E mixture was rehydrated in MEM-Krebs to a concentration of 87 μg Vitamin E/ml. Alveolar surfactant protein SP-A was added to the liposome mixture to a concentration of 100 μg/ml.
(§6) The liposomes containing Vitamin E prepared as in Example I above were tested in vivo by administration to rats according to the procedure outlined above in section C. […]

[4] = In vivo anesthetized rat model, radiolabelled Vitamin E in serum, 24 hour timecourse
Method: as §3, §4, §5, §6

type II cells [5] = test: In vitro uptake of 6-carboxy-fluorscein liposomes by freshly isolated type II cells; assay type: cell-based, male Sprague-Dawley rats; conditions: result in words
Method: as §1, §2

[6] = ASP activity (in vivo assay of Robertson, or in vitro surface tension assay); conditions: in combination as well as independently; result in words
Method: In this assay, the sample to be assessed is administered through an endotracheal tube to fetal rabbits or lambs delivered prematurely by Caesarian section. (These "preemies" lack their own alveolar surfactant, and are supported on a ventilator.) Measurements of lung Compliance, blood gases and ventilator pressure provide indices of activity.
Preliminary assessment of activity may also be made by an in vitro assay, for example that of Kihg, R. J., et al, Am J Physiol (1972) 223:715-726, or that illustrated below of Hawgood, et al, which utilizes a straightforward measurement of surface tension at an air-water interface when the protein is mixed with a phospholipid vesicle preparation. […] The ASP activity can be used to enhance pulmonary administration of pharmaceutically active substances.

type II cells [7] = conditions: result in words; cited from earlier work
[8] = given systemically; cited from earlier work
[9] = 24 hour timecourse, result in words

Molecule: alveolar surfactant protein SP-A: relatively high molecular weight (of the order of 32 kD) apoprotein associated with the lung surfactant complex; sequence of FIG. 1
- effect on uptake of liposomes containing Vitamin E (type II cells [1]): stimulates the uptake
- effect on transport of the liposomes containing Vitamin E to lung tissue [2]: stimulates the transport of the liposomes containing Vitamin E to lung tissue in a rapid fashion
- effect on transport to the lung [3, 9]: enhances transport to the lung
- effect on serum levels of radiolabelled vitamin E [4, 9]: enhances serum levels of radiolabelled vitamin E
- effect on uptake of liposomes containing 6-carboxy-fluorscein (type II cells [5]): stimulates the uptake
- ASP activity [6]: show ASP activity in combination as well as independently
- cell specificity of effects (type II cells [7]): seem specific to type II cells and macrophages

Molecule: N=C(N)c1ccc(OCCCCCOc2ccc(C(=N)N)cc2)cc1 [Pentamidine isethionate, pentamidine isethionate]
- toxicity [8]: quite toxic if given systemically

Molecule: Vitamin E [reference compound]
- amount of radiolabelled Vitamin E in the lung, with vs. without SP-A ([3]; rat, in vivo): comparable in experimental and control animals
- serum radiolabelled Vitamin E, with vs. without SP-A ([4]; rat, in vivo): The same non-specific effect is also seen in the serum

B1: SP-B: the larger of the two hydrophobic proteins, about 18 kD on gels under non-reducing conditions; sequence of FIG. 2 (protein, UniProt P07988 201-279, looked up)
Pulmonary …: FPIPLPYCWLCRALIKRIQAMIPKGALAVAVAQVCRVVPLVAGGICQCLAERYSVILLDTLLGRMLPQLVCRLVLRCSM
modifications: Pulmonary surfactant-associated protein B
- ASP activity [6]: show ASP activity in combination as well as independently

— patent US5006343A, “Pulmonary administration of pharmaceutically active substances” (priority 1988, dated 1991)
